Experimental data: US5935958A, “Muscarinic antagonists” (Schering Corporation, priority 1997, dated 1999)

Assays:
[1] = target: T1, cloned human m2 muscarinic receptor (Homo sapiens, UniProt P08172); experiment: Muscarinic binding, inhibition of 3H-QNB binding, m2; details: for m1/m2 (Ki ratio): Ki for m1 receptors divided by Ki for m2 receptors, higher ratio = greater m2 selectivity; for m4/m2 (Ki ratio): Ki for m4 divided by Ki for m2; for m1/m2 and m4/m2 ratios, in words: tests reported in Table 1
T1 construct: expressed in transfected cells; host or cells: CHO (stably transfected), membranes
T1 sequence (P08172 1-466): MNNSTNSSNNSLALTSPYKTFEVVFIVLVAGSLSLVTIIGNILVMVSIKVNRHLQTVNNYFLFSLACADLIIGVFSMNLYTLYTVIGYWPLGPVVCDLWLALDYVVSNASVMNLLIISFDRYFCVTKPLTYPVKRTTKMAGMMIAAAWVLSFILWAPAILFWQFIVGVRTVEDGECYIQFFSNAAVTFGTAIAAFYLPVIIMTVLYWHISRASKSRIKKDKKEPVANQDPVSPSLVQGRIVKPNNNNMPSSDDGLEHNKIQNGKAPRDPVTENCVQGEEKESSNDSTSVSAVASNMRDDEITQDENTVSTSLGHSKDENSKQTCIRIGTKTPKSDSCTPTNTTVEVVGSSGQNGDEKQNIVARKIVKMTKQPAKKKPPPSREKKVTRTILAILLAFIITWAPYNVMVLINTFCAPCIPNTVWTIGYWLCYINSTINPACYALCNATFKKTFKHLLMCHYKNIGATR

m2 muscarinic = details: Baumgold et al., Eur. J. Pharmacol., 251 (1994) 315-317; cited from earlier work
[2] = target: T2, cloned human m1 muscarinic receptor (Homo sapiens, UniProt P11229); experiment: Muscarinic binding, inhibition of 3H-QNB binding, m1; details: CHO cell membranes, 25° C., 90 minutes
T2 construct: expressed in transfected cells; host or cells: CHO (stably transfected), membranes
T2 sequence (P11229 1-460): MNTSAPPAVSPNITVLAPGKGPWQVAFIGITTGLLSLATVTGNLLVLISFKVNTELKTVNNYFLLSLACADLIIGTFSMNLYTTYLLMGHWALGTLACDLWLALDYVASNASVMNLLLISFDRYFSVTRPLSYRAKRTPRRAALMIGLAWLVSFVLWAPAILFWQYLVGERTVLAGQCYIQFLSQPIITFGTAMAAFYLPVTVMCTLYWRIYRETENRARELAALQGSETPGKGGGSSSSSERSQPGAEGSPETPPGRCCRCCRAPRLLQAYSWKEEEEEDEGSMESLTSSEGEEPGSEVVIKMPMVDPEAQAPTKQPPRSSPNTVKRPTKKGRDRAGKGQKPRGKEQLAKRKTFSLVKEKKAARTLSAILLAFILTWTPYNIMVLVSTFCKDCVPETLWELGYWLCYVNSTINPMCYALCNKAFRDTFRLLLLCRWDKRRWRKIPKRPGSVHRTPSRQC

[3] = target: T3, cloned human m4 muscarinic receptor (Homo sapiens, UniProt P08173); experiment: Muscarinic binding, inhibition of 3H-QNB binding, m4; details: CHO cell membranes, 25° C., 90 minutes
T3 construct: expressed in transfected cells; host or cells: CHO (stably transfected), membranes
T3 sequence (P08173 1-479): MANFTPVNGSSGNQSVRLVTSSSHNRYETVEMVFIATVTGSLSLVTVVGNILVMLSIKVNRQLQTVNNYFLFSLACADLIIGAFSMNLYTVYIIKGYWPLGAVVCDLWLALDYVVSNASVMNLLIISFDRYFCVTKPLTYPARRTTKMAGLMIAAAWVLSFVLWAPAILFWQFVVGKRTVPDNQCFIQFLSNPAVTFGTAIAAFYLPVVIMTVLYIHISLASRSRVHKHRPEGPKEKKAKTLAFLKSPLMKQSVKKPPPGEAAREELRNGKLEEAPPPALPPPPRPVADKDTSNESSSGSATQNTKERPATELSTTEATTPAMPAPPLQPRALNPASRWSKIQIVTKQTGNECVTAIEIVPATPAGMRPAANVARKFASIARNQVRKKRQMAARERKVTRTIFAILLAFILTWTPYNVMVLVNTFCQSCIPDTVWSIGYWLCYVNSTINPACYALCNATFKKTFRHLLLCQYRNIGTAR

Row | Structure (SMILES) | m1/m2 (Ki ratio) [1] | m4/m2 (Ki ratio) [1] | also measured
1 | c1cnc(Oc2ccc3c(c2)CC(CC2CCCCC2)C3N2CCN(C3CCCCC3)CC2)nc1 (stereo not shown) [Compound 12, 2-[[1-(4-Cyclohexyl-1-piperazinyl)-2-(cyclohexylmethyl)-2,3-dihydro-1H-inden-5-yl]oxy]pyrimidine] | 1.9 | – | –
2 | c1cnc(Oc2ccc3c(c2)CCC3N2CCN(C3CCCCC3)CC2)nc1 (single isomer, unassigned) [Compound 10] | 13.2 | 1.5 | m1/m2 and m4/m2 ratios, in words [1]: useful values of the m1/m2 and m4/m2 ratios
3 | C[C@H]1CC[C@@H]2N(C1)C[C@H]1[C@@H]3C[C@H]4[C@@H](CC(=O)[C@H]5C[C@@H](Cl)CC[C@@]54C)[C@@H]3CC[C@H]1[C@]2(C)O [3-α-chloroimperialine] | – | – | m2 muscarinic antagonist selectivity, in words (m2 muscarinic): highly selective m2 muscarinic antagonist
4 | O=[N+]([O-])c1ccc(Oc2ccc3c(c2)OCCC3N2CCN(C3CCCCC3)CC2)cc1 (stereo not shown) [Compound 2, 1-Cyclohexyl-4-[7-[(4-nitrophenyl)oxy]-chroman-4-yl]-piperazine] | 1.5 | – | –
5 | Nc1ccc(Oc2ccc3c(c2)OCCC3N2CCN(C3CCCCC3)CC2)cc1 (stereo not shown) [Compound 3] | 0.6 | 0.3 | –
6 | COc1ccc(S(=O)(=O)c2ccc3c(c2)CCC3N2CCN(C3CCCCC3)C[C@H]2C)cc1 (single isomer, unassigned) [Compound 14] | 18.4 | 2.6 | m1/m2 and m4/m2 ratios, in words [1]: useful values of the m1/m2 and m4/m2 ratios
7 | c1cnc(Oc2ccc3c(c2)CCC3N2CCN(C3CCCCC3)CC2)nc1 (stereo not shown) [Compound 9] | 7.7 | – | m1/m2 and m4/m2 ratios, in words [1]: useful values of the m1/m2 and m4/m2 ratios
8 | c1cnc(Oc2ccc3c(c2)CCCCC3N2CCN(C3CCCCC3)CC2)nc1 (stereo not shown) [Compound 8] | 3.3 | 0.9 | Ki [2]: 88 nM; Ki ([1]; 3H-QNB binding, CHO cell membranes, 25° C., 90 minutes): 27 nM; Ki [3]: 23 nM
9 | O=[N+]([O-])c1ccc(Oc2ccc3c(c2)CCCC3N2CCN(C3CCCCC3)CC2)cc1 (stereo not shown) [Compound 6] | 6.6 | 0.8 | –
10 | O=S(=O)(c1ccccc1)c1ccc2c(c1)CCC2N1CCN(CCO)CC1 (stereo not shown) [Compound 1] | 4.5 | 1.3 | –
11 | COc1ccc(S(=O)(=O)c2ccc3c(c2)CCC3N2CCC(N3CCCCC3)CC2)cc1 (stereo not shown) [Compound 13] | 4.0 | 2.0 | –
12 | c1cnc(Oc2ccc3c(c2)CCC3N2CCN(C3CCCCC3)CC2)nc1 (single isomer, unassigned) [Compound 11] | 3.6 | – | –
13 | CC(=O)Nc1ccc(Oc2ccc3c(c2)OCCC3N2CCN(C3CCCCC3)CC2)cc1 (stereo not shown) [Compound 4] | 1.0 | > 0.9 | –
14 | c1cnc(Oc2ccc3c(c2)CCCC3N2CCN(C3CCCCC3)CC2)nc1 (stereo not shown) [Compound 5, 4-Cyclohexyl-1-piperazinyl-[6-[(2-pyrimidinyl)oxy]]-1,2,3,4-tetrahydro-naphthalene] | 7.5 | 1.6 | –
15 | Nc1ccc(Oc2ccc3c(c2)CCCC3N2CCN(C3CCCCC3)CC2)cc1 (stereo not shown) [Compound 7] | 4.0 | 0.8 | –
16 | COc1ccc(S(=O)(=O)c2ccc3c(c2)CCC3N2CCN(C3CCCCC3)C[C@H]2C)cc1 (single isomer, unassigned) [Compound 15] | 11.2 | 2.5 | m1/m2 and m4/m2 ratios, in words [1]: useful values of the m1/m2 and m4/m2 ratios
